From US9090538B2, “Uses of esteramide compounds” (priority 2010, dated 2015)

Experiments:
Type in all cases: physicochemical
Parameters in all cases: key: Crystal: When the formation of active crystals is observed, the term of <> is indicated; Limpid: When the solution remains limpid (absence of solid or cloudiness), it is the term of <> which is indicated
[1] = Visual observation at 25° C. of formulation of active in solvent
Protocol: (§1) Formulations were made by diluting various actives, reported below in the table, in the compounds 1-4 synthesized above.
1) Visual observation at 25° C.
The aspect of the formulation is noted and the presence of crystals is possibly located.
(§2) The actives used are commercially available.

[2] = Visual observation at 0° C. after 7 days (CIPAC MT39 test); details: 7 days at 0° C.
Protocol: as §1
2) Visual observation at 0° C.
The formulation is placed at 0° C. for 7 days and the aspect of the formulation is noted and the presence of crystals is possibly located (CIPAC MT39 test).
as §2

[3] = Visual observation at 0° C. with nucleation (crystal of pure active introduced, 7 more days at 0° C.); details: crystal of active added
Protocol: as §1
3) Visual observation at 0° C. with nucleation (by introducing a crystal of the pure active into the liquid)
A crystal of the active material is introduced into the formulation which has spent 7 days at 0° C. for nucleation, and the formulation is again placed for 7 days at 0° C. The aspect of the formulation is noted and the presence of crystals or the growth of the introduced crystal is possibly located.
as §2

[4] = active Alachlor 48% EC in the compound as solvent
[5] = active Azoxystrobine 25% EC in the compound as solvent
[6] = active Difenconazole 25% EC in the compound as solvent
[7] = active Dimethoate 40% EC in the compound as solvent
[8] = active Oxyfluorfen 22% EC in the compound as solvent
[9] = active Pendimethalin 33% EC in the compound as solvent
[10] = active Phenmedipham 16% EC in the compound as solvent
[11] = active Propanil 36% EC in the compound as solvent
[12] = active Propuxur 20% EC in the compound as solvent
[13] = active Tebuconazole 25% EC in the compound as solvent
[14] = active Trifluralin 40% EC in the compound as solvent
[15] = active alpha-Cypermethrin 10% EC in the compound as solvent
[16] = active Chlorpyrifos 40% EC in the compound as solvent

| Structure (SMILES) | Aspect at 25° C. [1, 4] | Aspect at 25° C. [1, 6] | Aspect at 25° C. [1, 7] | Aspect at 25° C. [1, 8] | Aspect at 25° C. [1, 9] | Aspect at 25° C. [1, 11] | Aspect at 25° C. [1, 12] | Aspect at 25° C. [1, 14] | Aspect at 25° C. [1, 15] | Aspect at 0° C. [2, 4] | Aspect at 0° C. [2, 6] | Aspect at 0° C. [2, 7] | Aspect at 0° C. [2, 8] | Aspect at 0° C. [2, 9] | Aspect at 0° C. [2, 11] | Aspect at 0° C. [2, 12] | Aspect at 0° C. [2, 14] | Aspect at 0° C. [2, 15] | Aspect at 0° C. with nucleation [3, 4] | Aspect at 0° C. with nucleation [3, 6] | other results |
| --- | --- | --- | --- | --- | --- | --- | --- | --- | --- | --- | --- | --- | --- | --- | --- | --- | --- | --- | --- | --- | --- |
| COC(=O)C(=O)N(C)C [Compound 1, methyl 2-(dimethylamino)-2-oxoacetate] | Limpid | Limpid | Limpid | Limpid | Limpid | Limpid | Limpid | Limpid | Limpid | Limpid | Limpid | Crystal | Crystal | Crystal | Limpid | Limpid | Crystal | Limpid | Limpid | Limpid | Aspect at 25° C. [1, 5]: Limpid; Aspect at 25° C. [1, 10]: Limpid; Aspect at 25° C. [1, 13]: Limpid; Aspect at 0° C. [2, 5]: Crystal; Aspect at 0° C. [2, 10]: Limpid; Aspect at 0° C. [2, 13]: Crystal; Aspect at 0° C. with nucleation [3, 10]: Limpid; Aspect at 0° C. with nucleation [3, 11]: Limpid; Aspect at 0° C. with nucleation [3, 12]: Limpid; Aspect at 0° C. with nucleation [3, 15]: Limpid |
| CCOC(=O)C(=O)N(C)C [Compound 2, ethyl 2-(dimethylamino)-2-oxoacetate] | Limpid | Limpid | Limpid | Limpid | Limpid | Limpid | Limpid | Limpid | Limpid | Limpid | Limpid | Limpid | Limpid | Crystal | Limpid | Crystal | Limpid | Limpid | Limpid | Limpid | Aspect at 25° C. [1, 5]: Limpid; Aspect at 25° C. [1, 16]: Limpid; Aspect at 25° C. [1, 10]: Limpid; Aspect at 25° C. [1, 13]: Limpid; Aspect at 0° C. [2, 5]: Crystal; Aspect at 0° C. [2, 16]: Limpid; Aspect at 0° C. [2, 10]: Limpid; Aspect at 0° C. [2, 13]: Crystal; Aspect at 0° C. with nucleation [3, 16]: Limpid; Aspect at 0° C. with nucleation [3, 7]: Crystal; Aspect at 0° C. with nucleation [3, 8]: Limpid; Aspect at 0° C. with nucleation [3, 10]: Limpid; Aspect at 0° C. with nucleation [3, 11]: Limpid; Aspect at 0° C. with nucleation [3, 14]: Limpid; Aspect at 0° C. with nucleation [3, 15]: Limpid |
| CCCCC(CC)COC(=O)C(=O)N(C)C (centres unmarked) [Compound 3, 2-ethyl-hexyl 2-(dimethylamino)-2-oxoacetate] | Limpid | Limpid | Limpid | Limpid | Limpid | Limpid | Limpid | Limpid | Limpid | Limpid | Limpid | Crystal | Limpid | Crystal | Limpid | Crystal | Limpid | Limpid | Limpid | Limpid | Aspect at 25° C. [1, 16]: Limpid; Aspect at 0° C. [2, 16]: Limpid; Aspect at 0° C. with nucleation [3, 16]: Limpid; Aspect at 0° C. with nucleation [3, 8]: Crystal; Aspect at 0° C. with nucleation [3, 11]: Limpid; Aspect at 0° C. with nucleation [3, 14]: Limpid; Aspect at 0° C. with nucleation [3, 15]: Limpid |
| CCCCCCCCCCOC(=O)C(=O)N(C)C [Compound 4, n-decyl 2-(dimethylamino)-2-oxoacetate] | Limpid | Limpid | – | Limpid | – | Limpid | – | Limpid | – | Limpid | Limpid | – | Crystal | – | Crystal | – | Limpid | – | Limpid | Limpid | Aspect at 25° C. [1, 16]: Limpid; Aspect at 0° C. [2, 16]: Crystal; Aspect at 0° C. with nucleation [3, 14]: Limpid |
